Where a name gives a salt, the structure may show the parent alone.
target: T1, recombinant human LTA4 hydrolase (rhLTA4H) (Homo sapiens, UniProt P09960); assay: Recombinant human LTA4 hydrolase assay for LTA4 hydrolase inhibitor activity; assay type: biochemical; conditions: rhLTA4H, LTB4 by immunoassay; single determination or average of two or more; mark after value = form tested: ′ free base, ″ hydrochloride, ^ formate; read-out: IC50
T1 construct: made in house; host or cells: Spodoptera frugiperda (Sf-9) cells, baculovirus (pFastBac1)
T1 sequence (P09960 1-611): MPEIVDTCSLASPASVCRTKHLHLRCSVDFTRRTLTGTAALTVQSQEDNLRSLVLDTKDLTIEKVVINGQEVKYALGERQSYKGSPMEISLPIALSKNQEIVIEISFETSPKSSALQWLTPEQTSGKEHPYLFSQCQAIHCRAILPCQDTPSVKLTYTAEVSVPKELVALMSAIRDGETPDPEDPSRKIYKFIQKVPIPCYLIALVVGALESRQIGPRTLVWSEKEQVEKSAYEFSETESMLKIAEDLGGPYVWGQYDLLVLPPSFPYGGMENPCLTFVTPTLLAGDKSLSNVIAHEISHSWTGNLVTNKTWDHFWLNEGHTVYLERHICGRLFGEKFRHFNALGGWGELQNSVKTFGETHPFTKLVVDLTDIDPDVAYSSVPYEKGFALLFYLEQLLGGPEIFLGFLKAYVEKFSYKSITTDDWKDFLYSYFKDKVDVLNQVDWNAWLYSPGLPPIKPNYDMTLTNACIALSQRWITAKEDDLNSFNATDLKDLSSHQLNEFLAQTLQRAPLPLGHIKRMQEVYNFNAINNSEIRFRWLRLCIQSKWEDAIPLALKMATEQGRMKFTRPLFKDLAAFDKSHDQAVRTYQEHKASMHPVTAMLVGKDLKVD
Method: Assay 1: Recombinant Human LTA4 Hydrolase Assay for LTA4 Hydrolase Inhibitor Activity
Compounds of the present invention were tested for LTA4 hydrolase inhibitor activity against recombinant human LTA4 hydrolase (rhLTA4H). Vectors were prepared and used to express rhLTA4H essentially as follows: LTA4 hydrolase encoding DNA was amplified by polymerase chain reaction (PCR) using a human placental cDNA library as a template. […] The amplified 1.9 kb DNA fragment encoding LTA4 hydrolase was isolated and cloned into the pFastBac1 vector (Invitrogen). Recombinant baculovirus was generated as described by the manufacturer, and used to infect Spodoptera frugiperda (Sf-9) cells. […] The purified enzyme solution was adjusted to contain 0.29 mg/mL LTA4 hydrolase, 50 mM Tris (pH 8.0), 150 mM NaCl, 5 mM dithiothreitol, 50% glycerol, and EDTA-free Complete protease inhibitor cocktail (Roche).
LTA4 substrate was prepared from the methyl ester of LTA4 (Cayman Chemical) by treatment with 67 equiv of NaOH under nitrogen at rt for 40 min. The LTA4 substrate in its free acid form was kept frozen at −80° C. until needed. Each compound was diluted to different concentrations in assay buffer (from Assay Designs) containing 10% DMSO. A 25-μL aliquot of each compound dilution was incubated for 10 min at rt with an equal volume of assay buffer containing 10 ng of recombinant human LTA4H. The solution was then adjusted to 200 μL with assay buffer. […] Each reaction was carried out at rt for 30 min. The reaction was stopped by diluting 10 μL of the reaction mixture with 200 μL of assay buffer. LTB4 was quantified in the diluted sample by a commercially available enzyme-linked immunoassay (Cayman Chemical Co.), as recommended by the manufacturer. Positive controls, under essentially identical conditions but without addition of an inhibitor compound, and negative controls, containing all assay components except enzyme, were routinely run in each experiment. IC50 values were determined by nonlinear regression of the activity data at different compound concentrations using Graphpad Prism 4.0, one site binding competition.
The values presented here are the result of a single determination or an average of two or more determinations. Compounds that were not tested are indicated as such by a “NT” designation.

Question: `O=C(NCc1coc2cc(Oc3nc4ncccc4s3)ccc12)[C@@H]1C[C@@H]2CC[C@H]1C2` (relative stereo) [Example 389, endo-Bicyclo[2.2.1]heptane-2-carboxylic acid [6-(thiazolo[4,5-b]pyridin-2-yloxy)-benzofuran-3-ylmethyl]-amide] was tested. Which IC50 did it give?
Answer: 120 nM

Question: `c1ccc2sc(Oc3ccc4[nH]cc(CN5CCCC5)c4c3)nc2c1` [Example 9, 2-(3-Pyrrolidin-1-ylmethyl-1H-indol-5-yloxy)-benzothiazole] was tested. Which IC50 did it give?
Answer: 591 nM

Question: Which IC50 does the source give for `c1ccc2sc(Oc3ccc4[nH]cc(CN5CCCCC5)c4c3)nc2c1` [Example 10, 2-(3-Piperidin-1-ylmethyl-1H-indol-5-yloxy)-benzothiazole] here?
Answer: 415 nM

Question: `c1ccc2sc(Oc3ccc4[nH]cc(CN5CCOCC5)c4c3)nc2c1` [Example 11, 2-(3-Morpholin-4-ylmethyl-1H-indol-5-yloxy)-benzothiazole] was tested. Which IC50 did it give?
Answer: 1400 nM

Question: With `c1ccc2sc(Oc3ccc4c(CN5CCc6sc7ccccc7c6C5)c[nH]c4c3)nc2c1` [Example 39, 2-[6-(Benzothiazol-2-yloxy)-1H-indol-3-ylmethyl]-1,2,3,4-tetrahydro-benzo[4,5]thieno[3,2-c]pyridine formate] as the compound, how does the IC50 read?
Answer: 275 nM

Question: How did the IC50 turn out when `CC(=O)N(CC(=O)O)[C@H]1C[C@H]2CC[C@@H](C1)N2Cc1c[nH]c2cc(Oc3nc4ccccc4s3)ccc12` [Example 48, meso-endo-(Acetyl-{8-[6-(benzothiazol-2-yloxy)-1H-indol-3-ylmethyl]-8-aza-bicyclo[3.2.1]oct-3-yl}-amino)-acetic acid] was run?
Answer: 679 nM

Question: Which IC50 does the source give for `Clc1cnc2nc(Oc3ccc4c(CN5CCOCC5)c[nH]c4c3)sc2c1` [Example 59, 6-Chloro-2-(3-morpholin-4-ylmethyl-1H-indol-6-yloxy)-thiazolo[4,5-b]pyridine] here?
Answer: 111 nM

Question: How did the IC50 turn out when `Fc1cnc2sc(Oc3ccc4c(CN5CCOCC5)c[nH]c4c3)nc2c1` [Example 60, 6-Fluoro-2-(3-morpholin-4-ylmethyl-1H-indol-6-yloxy)-thiazolo[5,4-b]pyridine] was run?
Answer: 169 nM

Question: With `Cn1cc(CN2CCOCC2)c2ccc(Oc3nc4ccccc4s3)cc21` [Example 61, 2-(1-Methyl-3-morpholin-4-ylmethyl-1H-indol-6-yloxy)-benzothiazole] as the compound, how does the IC50 read?
Answer: 610 nM

Question: How did the IC50 turn out when `CCn1c(CN2CCCCC2)cc2cc(Oc3nc4ccccc4s3)ccc21` [Example 62, 2-(1-Ethyl-2-piperidin-1-ylmethyl-1H-indol-5-yloxy)-benzothiazole] was run?
Answer: 382 nM

Question: With `CCn1c(CN2CCOCC2)cc2cc(Oc3nc4ccccc4s3)ccc21` [Example 63, 2-(1-Ethyl-2-morpholin-4-ylmethyl-1H-indol-5-yloxy)-benzothiazole] as the compound, how does the IC50 read?
Answer: 1640 nM

Question: How did the IC50 turn out when `O=C(O)C1CCN(CCc2c[nH]c3ccc(Oc4nc5ccccc5s4)cc23)CC1` [Example 73, 1-{2-[5-(Benzothiazol-2-yloxy)-1H-indol-3-yl]-ethyl}-piperidine-4-carboxylic acid] was run?
Answer: 3460 nM

Question: How did the IC50 turn out when `c1ccc2sc(Oc3ccc4[nH]cc(CCN5CCCCC5)c4c3)nc2c1` [Example 74, 2-[3-(2-Piperidin-1-yl-ethyl)-1H-indol-5-yloxy]-benzothiazole] was run?
Answer: 2030 nM

Question: `NC(=O)C1CCN(CCc2c[nH]c3ccc(Oc4nc5ccccc5s4)cc23)CC1` [Example 75, 1-{2-[5-(Benzothiazol-2-yloxy)-1H-indol-3-yl]-ethyl}-piperidine-4-carboxylic acid amide] was tested. Which IC50 did it give?
Answer: 714 nM

Question: With `O=C(O)CC1CCN(Cc2cc3ccc(Oc4nc5ccccc5s4)cc3o2)CC1` [Example 78, {1-[6-(Benzothiazol-2-yloxy)-benzofuran-2-ylmethyl]-piperidin-4-yl}-acetic acid formate] as the compound, how does the IC50 read?
Answer: 226 nM

Question: Which IC50 does the source give for `O=C(O)CN1CCN(Cc2cc3ccc(Oc4nc5ccccc5s4)cc3o2)CC1` [Example 79, {4-[6-(Benzothiazol-2-yloxy)-benzofuran-2-ylmethyl]-piperazin-1-yl}-acetic acid formate] here?
Answer: 460 nM

Question: With `c1ccc2sc(Oc3ccc4oc(CN5CCCCC5)cc4c3)nc2c1` [Example 82, 2-(2-Piperidin-1-ylmethyl-benzofuran-5-yloxy)-benzothiazole formate] as the compound, how does the IC50 read?
Answer: 190 nM

Question: With `Fc1cccc2sc(Oc3ccc4oc(CN5CCCCC5)cc4c3)nc12` [Example 84, 4-Fluoro-2-(2-piperidin-1-ylmethyl-benzofuran-5-yloxy)-benzothiazole formate] as the compound, how does the IC50 read?
Answer: 236 nM

Question: `c1cnc(OC2CCN(Cc3cc4cc(Oc5nc6ncccc6s5)ccc4o3)CC2)nc1` [Example 89, 2-{2-[4-(Pyrimidin-2-yloxy)-piperidin-1-ylmethyl]-benzofuran-5-yloxy}-thiazolo[4,5-b]pyridine] was tested. Which IC50 did it give?
Answer: 149 nM

Question: For `c1cnc2nc(Oc3ccc4oc(CN5CCOCC5)cc4c3)sc2c1` [Example 97, 2-(2-Morpholin-4-ylmethyl-benzofuran-5-yloxy)-thiazolo[4,5-b]pyridine], which IC50 is on record?
Answer: 194 nM

Question: With `C[C@H]1COCCN1Cc1cc2cc(Oc3nc4ncccc4s3)ccc2o1` [Example 98, (3S)-2-[2-(3-Methyl-morpholin-4-ylmethyl)-benzofuran-5-yloxy]-thiazolo[4,5-b]pyridine] as the compound, how does the IC50 read?
Answer: 153 nM

Question: How did the IC50 turn out when `O=C1CCCN1C1CCN(Cc2cc3ccc(Oc4nc5ncccc5s4)cc3o2)CC1` [Example 108, 1-{1-[6-(Thiazolo[4,5-b]pyridin-2-yloxy)-benzofuran-2-ylmethyl]-piperidin-4-yl}-pyrrolidin-2-one formate] was run?
Answer: 145 nM

Question: `c1cnc2nc(Oc3ccc4cc(CN5C[C@@H]6C[C@H]5CO6)oc4c3)sc2c1` [Example 109, (1S,4S)-2-[2-(2-Oxa-5-aza-bicyclo[2.2.1]hept-5-ylmethyl)-benzofuran-6-yloxy]-thiazolo[4,5-b]pyridine formate] was tested. Which IC50 did it give?
Answer: 186 nM

Question: Which IC50 does the source give for `c1cnc2nc(Oc3ccc4cc(CN5CC6COCC6C5)oc4c3)sc2c1` (stereo not shown) [Example 110, 2-[2-(Tetrahydro-furo[3,4-c]pyrrol-5-ylmethyl)-benzofuran-6-yloxy]-thiazolo[4,5-b]pyridine formate] here?
Answer: 207 nM

Question: For `FC1CCN(Cc2cc3cc(Oc4nc5ncccc5s4)ccc3o2)CC1` [Example 111, 2-[2-(4-Fluoro-piperidin-1-ylmethyl)-benzofuran-5-yloxy]-thiazolo[4,5-b]pyridine], which IC50 is on record?
Answer: 281 nM

Question: How did the IC50 turn out when `c1cnc2nc(Oc3ccc4oc(CN5CC6COCC6C5)cc4c3)sc2c1` (stereo not shown) [Example 113, 2-[2-(Tetrahydro-furo[3,4-c]pyrrol-5-ylmethyl)-benzofuran-5-yloxy]-thiazolo[4,5-b]pyridine] was run?
Answer: 283 nM

Question: With `c1cnc2nc(Oc3ccc4cc(CN5CCOCC5)oc4c3)sc2c1` [Example 115, 2-(2-Morpholin-4-ylmethyl-benzofuran-6-yloxy)-thiazolo[4,5-b]pyridine] as the compound, how does the IC50 read?
Answer: 327 nM

Question: How did the IC50 turn out when `NC(=O)N1C[C@@H]2C[C@H]1CN2Cc1cc2ccc(Oc3nc4ncccc4s3)cc2o1` [Example 117, (1S,4S)-5-[6-(Thiazolo[4,5-b]pyridin-2-yloxy)-benzofuran-2-ylmethyl]-2,5-diaza-bicyclo[2.2.1]heptane-2-carboxylic acid amide] was run?
Answer: 118 nM

Question: Which IC50 does the source give for `CC(=O)NC1CCN(Cc2cc3ccc(Oc4nc5ncccc5s4)cc3o2)C1` (stereo not shown) [Example 120, N-(1-{[6-([1,3]thiazolo[4,5-b]pyridin-2-yloxy)-1-benzofuran-2-yl]methyl}pyrrolidin-3-yl)acetamide formate] here?
Answer: 145 nM

Question: With `CC(=O)N1C[C@@H]2C[C@H]1CN2Cc1cc2cc(Oc3nc4cccnc4s3)ccc2o1` [Example 121, (1S,4S)-1-{5-[5-(Thiazolo[5,4-b]pyridin-2-yloxy)-benzofuran-2-ylmethyl]-2,5-diaza-bicyclo[2.2.1]hept-2-yl}-ethanone] as the compound, how does the IC50 read?
Answer: 488 nM

Question: How did the IC50 turn out when `CC(=O)N1C[C@@H]2C[C@H]1CN2Cc1cc2ccc(Oc3nc4cccnc4s3)cc2o1` [Example 122, (1S,4S)-1-{5-[6-(Thiazolo[5,4-b]pyridin-2-yloxy)-benzofuran-2-ylmethyl]-2,5-diaza-bicyclo[2.2.1]hept-2-yl}-ethanone] was run?
Answer: 3430 nM

— patent US8399465B2, “Compounds with two fused bicyclic heteroaryl moieties as modulators of leukotriene A4 hydrolase” (Janssen Pharmaceutica NV, priority 2009, dated 2013)
